Tests used:
[1] = Photolysis of BODIPY prodrugs in solution, analysed by HPLC; format: physicochemical; conditions: 690 nm, 100 mW/cm^2, 5 min, 0.1 equiv. Os(bptpy)2^2+, N2-saturated solution
Procedure: BODIPY photocage was conjugated with the free drug molecules to form photoactivable prodrugs with photolabile linkages, including ester and carbamate. The light illumination was performed with a NIR lamp, of which the parameters were 100 mW/cm^2, 690 nm for 5 min, in a N2-saturated solution containing 0.1 equiv. of Os(bptpy)2^2+ and 1 equiv. of prodrugs. […] In addition, the photocage was conjugated with drug molecules with amine groups to produce prodrugs with photolabile carbamate bonds.
The photolysis efficiency of BODIPY prodrugs were compared in different conditions, including different excitation wavelengths (690 nm or 530 nm), different ratios of Os(bptpy)2^2+, and different oxygen contents. […] The solvent was 88% methanol mixed by 10% dichloromethane and 2% acetone. For the N2-saturated groups, after dissolving the molecules, the solution was degassed with a vacuum pump for 10 min followed by gentle N2 blowing. After light irradiation, the resulted mixtures were refilled to 100 μL with methanol to avoid the error caused by solvent evaporation. The resulted solution was loaded onto the sampler and analyzed by high-performance liquid chromatography. An elution method was used to separate free drug, BODIPY photocage and prodrug on the C18 column.

[2] = Photoreaction quantum yields and cross sections (HPLC, Reinecke's salt actinometry); format: physicochemical; conditions: λex 690 nm, 0.1 eq Os, N2; for Cross section Φpε(λex) / Cross section Φrε(λex): ε of Os(bptpy)2·2PF6 at 688 nm
Procedure: Quantum yields of the photoreactions (Φ) are defined as:
The number of reacted molecules (e.g., consumption of prodrugs or generation of free drugs) were determined by HPLC. The absorbed photon number was determined by Reinecke's salt actinometry at excitation wavelengths of 530 nm and 690 nm^35, 36. The power densities were 50 mW/cm^2 (530 nm) and 100 mW/cm^2 (690 nm).

Structure (SMILES)	photolytic yield (yield of free drug) [1] [%]	prodrug decomposition [1]	Quantum yield of drug release Φr [2] [%]	Quantum yield of prodrug photolysis Φp [2] [%]	Cross section Φpε(λex) [2] [M⁻¹ cm⁻¹]	Cross section Φrε(λex) [2] [M⁻¹ cm⁻¹]
CC1=C(I)C(C)=[N+]2C1=C(COC(=O)Cc1cccc3c(=O)c4ccc(C)c(C)c4oc13)c1c(C)c(I)c(C)n1[B-]2(C)C [BODIPY-DMXAA, BODIPY-vadimezan]	82.52±7.22	completely consumed	0.71 ± 0.06	0.87 ± 0.01	230.30 ± 1.43	190.05 ± 16.63
CC1=C(I)C(C)=[N+]2C1=C(COC(=O)C(C)c1ccc(CC(C)C)cc1)c1c(C)c(I)c(C)n1[B-]2(C)C (centres unmarked) [BODIPY-IBF, BODIPY-ibuprofen]	48.49±4.69	–	0.42 ± 0.04	0.85 ± 0.04	226.34 ± 10.96	111.67 ± 10.81
COc1ccc2c(c1)c(CC(=O)OCC1=C3C(C)=C(I)C(C)=[N+]3[B-](C)(C)n3c(C)c(I)c(C)c31)c(C)n2C(=O)c1ccc(Cl)cc1 [BODIPY-IDM, BODIPY-indomethacin]	68.95±4.69	–	0.60 ± 0.04	0.86 ± 0.02	229.15 ± 5.23	158.79 ± 10.80
COc1ccc(CCNC(=O)OCC2=C3C(C)=C(I)C(C)=[N+]3[B-](C)(C)n3c(C)c(I)c(C)c32)cc1OC [BODIPY-HVA, BODIPY-homoveratrylamine]	74.17±3.97	–	0.64 ± 0.03	0.85 ± 0.04	224.98 ± 9.83	170.82 ± 9.14
CC1=C(I)C(C)=[N+]2C1=C(COC(=O)NCCc1ccc(O)c(O)c1)c1c(C)c(I)c(C)n1[B-]2(C)C [BODIPY-DPA, BODIPY-dopamine]	69.04±1.99	–	0.60 ± 0.02	0.86 ± 0.01	228.90 ± 3.59	159.00 ± 4.58
CC1=C(I)C(C)=[N+]2C1=C(COC(=O)NCCc1ccc(O)cc1)c1c(C)c(I)c(C)n1[B-]2(C)C [BODIPY-TyrA, BODIPY-tyramine]	46.57±2.37	–	0.40 ± 0.02	0.84 ± 0.02	223.12 ± 6.28	107.25 ± 5.46
CCCCN(C(=O)OCC1=C2C(C)=C(I)C(C)=[N+]2[B-](C)(C)n2c(C)c(I)c(C)c21)c1ccc(C(=O)OCCN(C)C)cc1 [BODIPY-TCI, BODIPY-tetracaine]	41.34±4.61	–	0.36 ± 0.04	0.81 ± 0.06	215.84 ± 15.71	95.21 ± 10.62
CC1=C(I)C(C)=[N+]2C1=C(COC(=O)/C=C/c1cccc(OCc3ccccc3)c1)c1c(C)c(I)c(C)n1[B-]2(C)C [BODIPY-BCA, BODIPY-benzyloxycinnamic acid]	87.12±3.17	–	0.75 ± 0.03	0.80 ± 0.02	213.33 ± 7.55	200.64 ± 7.30
